US12319684B2 (Sanford Burnham Prebys Medical Discovery Institute, priority 2014, dated 2025)
Like-named read-outs stand apart in the source and are kept apart here.

Key:
vasopressin release = conditions: intracerebral injection; cited from earlier work
[1] = system: abdominal aortic aneurysms; conditions: mouse model of abdominal aortic aneurysms; cited from earlier work
[2] = biological target: T1, human apelin receptor (APJ, AGTRL-1, APLNR) (Homo sapiens, UniProt P35414); assay: APJ cAMP cell-based assay (forskolin-stimulated CHO cells, enzyme fragment complementation); conditions: for Emax: CHO, 0.5 h, read-out: APJ cAMP % resp (efficacy)
T1 construct: host or cells: Chinese hamster ovary cells
T1 sequence (P35414 1-380): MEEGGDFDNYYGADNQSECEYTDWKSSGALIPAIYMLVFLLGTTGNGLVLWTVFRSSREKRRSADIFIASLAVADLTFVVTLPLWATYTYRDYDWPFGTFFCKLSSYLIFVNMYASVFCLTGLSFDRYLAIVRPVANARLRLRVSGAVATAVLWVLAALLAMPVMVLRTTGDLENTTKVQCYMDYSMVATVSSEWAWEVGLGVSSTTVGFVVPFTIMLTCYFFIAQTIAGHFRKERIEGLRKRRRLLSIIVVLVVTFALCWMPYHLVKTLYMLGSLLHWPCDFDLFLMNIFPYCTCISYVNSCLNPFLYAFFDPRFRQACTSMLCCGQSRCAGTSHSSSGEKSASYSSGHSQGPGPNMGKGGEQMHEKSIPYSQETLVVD

[3] = CHO cells expressing human APJ, forskolin-stimulated, 0.5 h incubation, 50% of control (apelin-13, 1 nM) response, read-out: APJ cAMP EC50
[4] = percentage of the maximal apelin-13 response at 1 nM (control)

Compound	EC50 [2, 3]	Emax [2, 4]	further results
apelin			reduction in plasma vasopressin concentrations (vasopressin release): 40%; reduction of aneurysm [1]: 50%
COc1ccccc1-n1c(SCc2cc(=O)n3c(C)cccc3n2)nnc1-c1cccs1 [Example 44, 2-[4-(2-Methoxy-phenyl)-5-thiophen-2-yl-4H-[1,2,4]triazol-3-ylsulfanylmethyl]-6-methyl-pyrido[1,2-a]pyrimidin-4-one]			EC50 [2]: 0.0098 µM; Emax [2]: 119%
COc1ccc2nc(CSc3nnc(-c4cccs4)n3-c3ccccc3OC)cc(=O)n2c1 [Example 45, 7-Methoxy-2-[4-(2-methoxy-phenyl)-5-thiophen-2-yl-4H-[1,2,4]triazol-3-ylsulfanylmethyl]-pyrido[1,2-a]pyrimidin-4-one]	0.0705 µM	130%	
Cc1ccc2nc(CSc3nnc(-c4cccs4)n3-c3ccccc3C)cc(=O)n2c1 [Example 23, 7-Methyl-2-(5-thiophen-2-yl-4-o-tolyl-4H-[1,2,4]triazol-3-ylsulfanylmethyl)-pyrido[1,2-a]pyrimidin-4-one]	0.179 µM	109%	
